Where “and” joins values, the source holds several entries; their conditions need not be identical. Equal entries are not always repeated. Where two headings read alike, the source gives them in different places.
Key:
[1] = Single rising oral dose Phase 1 PK, healthy adults (young males unless stated); format: in vivo, human
Procedure: The steady state AUC geometric mean accumulation ratios were ˜2 in young male subjects and ˜2.8 in elderly subjects (male and female).
All subjects were healthy adults. […] Systemic exposures were greater than dose proportional up to 600 mg.
Although exposures were similar in middle-aged males when compared to young males, plasma concentrations were higher in elderly compared to middle-aged and young subjects. […] Furthermore, the steady state AUC geometric mean accumulation ratios were ˜2 in young males and ˜2.8 in the elderly.

[2] = Dose-Cmax and dose-AUC models / simulations for 75 mg; parameters: species or system human
Procedure: In order to contextualize PK parameters of a 75 mg dose, dose-Cmax and dose-AUC models were created using data from Phase 1 studies.

[3] = Phase 2b OAB study, cardiovascular safety (HR, SBP, DBP, orthostatic AEs); format: in vivo, human
Excerpt: None led to discontinuation. The overall incidence of orthostatic symptoms was low.
Small differences in the percent of subjects exceeding categorical heart rate and blood pressure thresholds for vibegron were similar to those in the tolterodine arm.

[4] = Effect of food on oral absorption; format: in vivo, human; details: for Cmax / Tmax / AUC(0-t) / AUC(0-inf): human, plasma, oral; for AUC(0-t): read-out: AUC0-24
CYP2D6 = CYP2D6 (Homo sapiens, UniProt P10635); details: Rutman et al. 2019; cited from earlier work
Sequence of CYP2D6 (P10635 whole entry): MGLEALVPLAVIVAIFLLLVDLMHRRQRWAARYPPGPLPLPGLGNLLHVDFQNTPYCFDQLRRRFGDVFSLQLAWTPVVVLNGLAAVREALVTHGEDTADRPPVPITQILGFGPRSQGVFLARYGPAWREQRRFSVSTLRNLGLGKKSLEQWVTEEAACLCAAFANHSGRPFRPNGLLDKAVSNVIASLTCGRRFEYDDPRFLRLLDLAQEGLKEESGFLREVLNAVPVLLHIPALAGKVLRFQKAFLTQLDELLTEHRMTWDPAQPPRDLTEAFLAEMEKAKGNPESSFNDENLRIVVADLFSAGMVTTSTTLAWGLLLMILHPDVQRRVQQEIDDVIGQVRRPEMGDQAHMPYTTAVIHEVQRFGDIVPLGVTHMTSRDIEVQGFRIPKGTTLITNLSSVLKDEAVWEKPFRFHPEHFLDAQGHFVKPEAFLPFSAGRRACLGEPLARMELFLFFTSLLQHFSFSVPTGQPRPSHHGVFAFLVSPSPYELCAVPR

[5] = human, in vivo
Excerpt: The accumulation potential of circulating metabolites in plasma was not estimated due to insufficient data from later time points to enable estimation of half-life.

[6] = 75 mg, log-log regression of multiple-dose exposures
[7] = 50 mg, high-fat meal, non-Japanese young males
[8] = 50 mg, standard Japanese breakfast, Japanese young males
[9] = 150 mg multiple dose, middle-aged and elderly females, Day 1
[10] = female, 150 mg, 150 mg multiple dose day 14, middle-aged females, fed
[11] = male, 50 mg, single 50 mg, Japanese young males, fed
[12] = male, 50 mg, single 50 mg, non-Japanese young males, fed

O=C(Nc1ccc(C[C@@H]2CC[C@H]([C@H](O)c3ccccc3)N2)cc1)[C@@H]1CCc2nccc(=O)n21 [Vibegron, (6S)-N-[4-[[(2S,5R)-5-[(R)-hydroxy(phenyl)methyl]pyrrolidin-2-yl]methyl]phenyl]-4-oxo-7,8-dihydro-6H-pyrrolo[1,2-a]pyrimidine-6-carboxamide]
AUC0-inf higher in elderly than young males ([1]; single 50 mg): ~70%
Cmax higher in elderly than young males ([1]; single 50 mg): 60%
t1/2 ([1]; single 50 mg): 52 h and 52.0 ± 7.8 h
t1/2 ([1]; single 50 mg, elderly male and female): 92 h and 92.1 ± 15.9 h
exposure increase, Japanese vs non-Japanese young males ([1]; single dose): < 2 fold
AUC of 75 mg lower than 200 mg single dose [2]: ~2 fold
AUC of 75 mg lower than 400 mg single dose [2]: ~6 fold
Cmax of 75 mg lower than 200 mg single dose [2]: approximately 3.3 fold
Cmax of 75 mg lower than 400 mg single dose [2]: ~9.2 fold
reduction in Cmax ([2]; 75 mg vs 100 mg): ~40%
calculated AUC (mean±SD) [2, 6]: 1.14 ± 0.476 µg·h/mL
calculated Cmax (mean±SD) [2, 6]: 0.12 ± 0.0747 µg/mL and 0.12 µg/mL
Cmax ([2]; 100 mg): 0.206 µg/mL
increase in Cmax ([2]; dose increase from 50 to 100 mg): ~3 fold
DBP change from baseline, mean (95% CI) max, week 1 to 8 ([3]; 3 mg): 5.03 (3.92, 6.15) mm Hg
DBP change from baseline, mean (95% CI), week 1 ([3]; 3 mg): −0.37 (−1.69, 0.95) mm Hg
HR change from baseline, mean (95% CI) maximum, week 1 to 8 ([3]; 3 mg): 5.57 (4.25, 6.90) bpm
HR change from baseline, mean (95% CI), week 1 ([3]; 3 mg): 0.36 (−0.90, 1.62) bpm
SBP change from baseline, mean (95% CI) maximum, week 1 to 8 ([3]; 3 mg): 7.14 (5.18, 9.10) mm Hg
SBP change from baseline, mean (95% CI), week 1 ([3]; 3 mg): −0.35 (−2.34, 1.65) mm Hg
DBP change from baseline, mean (95% CI) max, week 1 to 8 ([3]; 15 mg): 6.37 (5.20, 7.53) mm Hg
DBP change from baseline, mean (95% CI), week 1 ([3]; 15 mg): 0.03 (−1.52, 1.59) mm Hg
HR change from baseline, mean (95% CI) maximum, week 1 to 8 ([3]; 15 mg): 6.56 (5.20, 7.92) bpm
HR change from baseline, mean (95% CI), week 1 ([3]; 15 mg): 0.35 (−1.15, 1.85) bpm
SBP change from baseline, mean (95% CI) maximum, week 1 to 8 ([3]; 15 mg): 8.93 (7.18, 10.67) mm Hg
SBP change from baseline, mean (95% CI), week 1 ([3]; 15 mg): −0.34 (−2.46, 1.78) mm Hg
subjects with orthostatic related AEs ([3]; 15 mg): 0.3%
DBP change from baseline, mean (95% CI) max, week 1 to 8 ([3]; 50 mg): 4.19 (3.10, 5.29) mm Hg
DBP change from baseline, mean (95% CI), week 1 ([3]; 50 mg): −0.70 (−2.07, 0.67) mm Hg
HR change from baseline, mean (95% CI) maximum, week 1 to 8 ([3]; 50 mg): 5.49 (4.28, 6.69) bpm
HR change from baseline, mean (95% CI), week 1 ([3]; 50 mg): 0.29 (−0.88, 1.46) bpm
SBP change from baseline, mean (95% CI) maximum, week 1 to 8 ([3]; 50 mg): 7.01 (5.31, 8.70) mm Hg
SBP change from baseline, mean (95% CI), week 1 ([3]; 50 mg): −0.79 (−2.65, 1.08) mm Hg
SBP and DBP change, difference from placebo ([3]; 50 mg and 100 mg, week 1 and maximum over 8 weeks): < 1 mm Hg
DBP change from baseline, mean (95% CI) max, week 1 to 8 ([3]; 100 mg): 4.80 (3.88, 5.72) mm Hg
DBP change from baseline, mean (95% CI), week 1 ([3]; 100 mg): −0.69 (−1.72, 0.34) mm Hg
HR change from baseline, mean (95% CI) maximum, week 1 to 8 ([3]; 100 mg): 6.12 (5.10, 7.15) bpm
HR change from baseline, mean (95% CI), week 1 ([3]; 100 mg): 0.35 (−0.69, 1.38) bpm
SBP change from baseline, mean (95% CI) maximum, week 1 to 8 ([3]; 100 mg): 6.51 (5.09, 7.93) mm Hg
SBP change from baseline, mean (95% CI), week 1 ([3]; 100 mg): −0.77 (−2.22, 0.68) mm Hg
subjects with orthostatic related AEs ([3]; 100 mg): 1.1%
HR mean maximum change over 8 weeks, difference from placebo ([3]; in vivo): < 2 bpm
AUC0-inf reduction, fed vs fasted [4, 7]: 46%
Cmax reduction, fed vs fasted [4, 7]: 67%
delay in Tmax, fed vs fasted [4, 7]: ~1 h
AUC0-inf reduction, fed vs fasted [4, 8]: 37%
Cmax reduction, fed vs fasted [4, 8]: 52%
Ctrough ([4]; 150 mg multiple dose day 14, middle-aged females, fed): 0.0653 ± 0.00787 µg/mL
AUC0-24 reduction with food vs fasted ([4]; 150 mg multiple dose, females, Day 14): ~20%
AUC0-24 with food compared to fasted [4, 9]: ~42%
Cmax with food compared to fasted [4, 9]: 59%
Cmax [4, 10]: 0.185 ± 0.0323 µg/mL
Tmax [4, 10]: 6 h
AUC(0-t) [4, 10]: 2.54 ± 0.334 µg·h/mL
AUC(0-inf) [4, 11]: 0.605 ± 0.222 µg·h/mL
Cmax [4, 11]: 0.0362 ± 0.0333 µg/mL
AUC(0-t) [4, 11]: 0.226 ± 0.112 µg·h/mL
AUC(0-inf) [4, 12]: 0.316 ± 0.127 µg·h/mL
Cmax [4, 12]: 0.0076 ± 0.00227 µg/mL
Tmax [4, 12]: 3 h
AUC(0-t) [4, 12]: 0.0907 ± 0.0229 µg·h/mL
CYP2D6 inhibition (CYP2D6): does not inhibit CYP2D6
dose recovered in feces [5]: approximately 59%
dose recovered in urine [5]: ~20%
total recovery of radioactivity in excreta [5]: 79%
share of plasma radioactivity ([5]; 2 hr): ~78%
share of plasma radioactivity ([5]; 4 hr): ~73%

— US20210196720A1 (UROVANT SCIENCES GMBH, priority 2018, published 2021)
